Measurements reported in US20090275626A1, “PHARMACEUTICAL COMPOSITION FOR PREVENTION OR TREATMENT OF NEUROGENIC PAIN” (KISSEI PHARMACEUTICAL CO., LTD., priority 2005, published 2009).
Entries after “also recorded” stand apart in the source; their conditions may differ.

What was measured:
Format in all cases: in vivo, rat
[1] = test system: STZ-induced diabetic rats; test: Nociceptive threshold in STZ-induced diabetic rats, repeated subcutaneous administration over 10 weeks (Test Example 2, Randall-Selitto method); conditions: for nociceptive threshold after 14-day repeated administration: 0.1, 0.3 and 1 mg/kg subcutaneous once a day, right hind-paw pressure, vs Control group; for neuroprotective effects: concluded from controlled changes of nociceptive threshold over 10 weeks (early hyperalgesia, late hypoalgesia); for changes of the nociceptive threshold over 10 weeks after STZ administration (repeated-measures analysis of variance vs Control group): subcutaneous once a day, measured every 2 weeks until 10th week, P<0.05
Experimental: STZ (50 mg/kg) was administered intravenously to male SD stain rats to induce diabetes mellitus. From the following day of the STZ administration, test article (Compound 1 or 2) was administered subcutaneously once a day, repeatedly. Normal and Control groups were administered subcutaneously physiological saline (9-10 rats in each group). Before the STZ administration and every 2 weeks until the 10th week after STZ administration, the nociceptive threshold against pressure stimulation given to the right hind-paw of rats was measured by Randall-Selitto method, and compared with Control group.
The changes of the nociceptive thresholds (mean±SE) in each group over 10 weeks after administration of each drug are shown in FIG. 2 and FIG. 3.

Seltzer model rats = test: Nociceptive threshold in Seltzer model rats (Test Example 3, Randall-Selitto method); conditions: for nociceptive threshold of the nerve ligation group: 1 hour after final administration; for analgesic effect compared with carbamazepine: Compounds 1, 2: 1 mg/kg s.c., Compound 3 hydrochloride: 10 mg/kg oral, carbamazepine 10 mg/kg oral, 2 weeks
From the text: Fifty-eight, 7-week old male SD rats were anesthetized with pentobarbital (Nembutal injection (a registered trademark)), and the right sciatic nerve was exposed. In the nerve ligation group (48 rats), half of the dorsal portion of the nerve was ligated using 6-0 nylon suture. In Normal group (10 rats), the sciatic nerve was only exposed. From the following day of the model preparation, each test article (Compound 1, Compound 2 or Compound 3 hydrochloride) was repeatedly administered once a day for 2 weeks. Compound 1 (10 rats) and Compound 2 (10 rats) were administered subcutaneously, and Compound 3 hydrochloride (9 rats) and carbamazepine (10 rats) were administered orally. Control group (9 rats) and Normal group were subcutaneously administered physiological saline. One hour after the final administration of the test articles, the nociceptive threshold against pressure stimulation given to the right hind-paw of rats was measured by Randall-Selitto method, and compared with Control group.

[2] = test system: STZ-induced diabetic rats; test: Nociceptive threshold in STZ-induced diabetic rats, repeated oral administration (Test Example 1, Randall-Selitto method); conditions: Compound 3 hydrochloride 10 mg/kg oral twice a day, 14-day repeated administration, 1 hour after final administration, right hind-paw pressure, vs Control group
Experimental: STZ (50 mg/kg) was administered intravenously to 7-week old male SD stain rats to induce diabetes mellitus. From the following day of the STZ administration, test article (Compound 3 hydrochloride) was administered orally twice a day, repeatedly (10 rats in each group). Normal and Control groups were administered the medium (0.5% methylcellulose). The nociceptive threshold against pressure stimulation given to the right hind-paw of rats after 2 weeks administration (1 hour after the final administration) of test article was measured by Randall-Selitto method, and compared with Control group.

[3] = 1 mg/kg subcutaneous once a day for 2 weeks
[4] = 10 mg/kg oral once a day for 2 weeks

Compound | nociceptive threshold after 14-day repeated administration [1] | neuroprotective effects [1] | changes of the nociceptive threshold over 10 weeks after STZ administration (repeated-measures analysis of variance vs Control group) ([1]; sodium salt) | nociceptive threshold of the nerve ligation group (Seltzer model rats; [3]) | analgesic effect compared with carbamazepine (Seltzer model rats) | changes of the nociceptive threshold over 10 weeks after STZ administration (repeated-measures analysis of variance vs Control group) ([1]; disodium salt) | nociceptive threshold [2] | nociceptive threshold of the nerve ligation group (Seltzer model rats; [4])
C[C@H](Cc1ccc(OCC(=O)[O-])cc1)NC[C@H](O)c1cccc(Cl)c1.[Na+] [Compound 1] | increased clearly in a dose-dependent manner at 0.3 mg/kg or above | have neuroprotective effects | significant differences in comparison with Control group; also recorded: significant difference | significantly improved | comparable to that of carbamazepine |  |  | 
C[C@H](Cc1ccc2c(c1)OC(C(=O)[O-])(C(=O)[O-])O2)NC[C@H](O)c1cccc(Cl)c1.[Na+].[Na+] [Compound 2] | increased clearly in a dose-dependent manner at 0.3 mg/kg or above | have neuroprotective effects |  | significantly improved | comparable to that of carbamazepine | significant differences in comparison with Control group; also recorded: significant difference |  | 
Cc1cc(-c2ccc(C(=O)O)c(C(C)C)c2)cc(C)c1OCCN[C@@H](C)[C@H](O)c1ccc(O)cc1 [Compound 3, 4′-[2-[(1S,2R)-2-hydroxy-2-(4-hydroxyphenyl)-1-methylethylamino]ethoxy]-3-isopropyl-3′,5′-dimethylbiphenyl-4-carboxylic acid] |  |  |  |  | comparable to that of carbamazepine |  | increased remarkably | significantly improved
NC(=O)N1c2ccccc2C=Cc2ccccc21 [carbamazepine, reference compound] |  |  |  |  |  |  |  | analgesic effect
